{"source": "patent US11466007B2", "about": "“Substituted lactams showing serotonin 5-HT receptor activity” (Sumitomo Pharma Co., Ltd., priority 2018, dated 2022)", "key": {"[1]": {"test": "Test 4: metabolic stability test in human hepatic microsome", "assay_type": "in vitro ADME", "conditions": "0.1 mg/mL microsome, 0.1 μmol/L compound, NADPH, 37° C., 30 minutes", "in_short": "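Test compound at 0.1 μmol/L incubated 30 min at 37° C with human liver microsomes (0.1 mg/mL) and NADPH (3.2 mmol/L) in 25 mmol/L phosphate buffer, pH 7.4. Residual compound quantified by LC-MS; clearance (mL/min/mg protein) = −LN(residual ratio)/30/0.1.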"}, "[2]": {"test": "Test 11: hepatotoxic risk (dansyl glutathione (dGSH) trapping assay)", "assay_type": "in vitro ADME", "conditions": "human hepatic microsome, 37° C. for 60 minutes, N.D. means below detection limit", "procedure": "Test 11: Evaluation of Hepatotoxic Risk (Dansyl Glutathione (dGSH) Trapping Assay)\nThe present compound was metabolized in hepatic microsome, and reactive metabolite which reacts with dansyl glutathione (dGSH) was detected and quantified from the resulting metabolite. Measurement was carried out with a screening robot (Tecan) for metabolic reaction, and with a fluorescence detection UPLC system (Waters) for metabolite-dGSH binding concentration.\nThe present compound was dissolved in DMSO to prepare 10 mmol/L test compound solution. 7.6 mL of potassium phosphate buffer (500 mmol/L, pH 7.4), 1.9 mL of human hepatic microsome (Xenotech, 20 mg protein/mL), and 1.27 mL of pure water were mixed to prepare a microsome solution. To 3.78 mL of the microsome solution was added 0.67 mL of pure water to prepare a microsome (dGSH(−)) solution. To 6.48 mL of the microsome solution was added 1.14 mL of the dGSH solution (20 mmol/L) to prepare a microsome (dGSH(+)) solution. […]\nMetabolite-dGSH binding concentration was measured by the following method, using a fluorescence detection UPLC system (Waters). […]\nFluorescence intensity was corrected with the composition of organic solvent at the time of elution because fluorescence intensity changes depending on the composition of organic solvent."}}, "data": [{"compound": "O=C1c2ncccc2CCN1CCN1CCC(c2noc3ccccc23)CC1", "note": "[Example 22, 7-{2-[4-(1,2-Benzoisoxazol-3-yl)piperidin-1-yl]ethyl}-6,7-dihydro-1,7-naphthyridin-8(5H)-one]", "values": [{"measurement": "Metabolic stability in human hepatic microsome", "setting": "[1]", "value": 0.039, "unit": "mL/min/mg protein"}, {"measurement": "Metabolite-dGSH binding concentration", "setting": "[2]", "value": 0.089, "unit": "µM"}]}]}
